Series [1] can be described thus: Pharmacokinetic study of TBN enteric-coated tablets (Example 25 method) and intravenous TBN in beagle dogs. It counts as in vivo. As for the experimental part:
(11) Pharmacokinetic study of TBN enteric-coated tablets prepared following the method described in Example 25
24 beagle dogs (male:female 1:1) were randomly divided into 4 groups (each group having 3 female and 3 male animals). Animals in group A were injected intravenously with a TBN (API) solution at a dosage of 6 mg·kg^−1, and animals in groups B and D were respectively given with TBN enteric-coated tablets at a dosage of 100 and 900 mg·animal^−1 by oral gavage. Blood was taken from the animals in group A before and 0.083, 0.25, 0.5, 1, 2, 4, 6, 8 and 24 h after administration; and blood was taken from the animals in group B and D before and 0.25, 0.5, 1, 2, 4, 6, 8, 12 and 24 h after administration. Animals in group C were given TBN enteric-coated tablets at a dosage of 300 mg·animal^−1 for seven consecutive days. Blood was taken from the animals in group C before and 0.25, 0.5, 1, 2, 4, 6, 8, 12 and 24 h after the first and seventh administration and before and 2 h after the second to sixth administration.
Detection and analysis by LC-MS/MS were performed and the pharmacokinetic parameters were calculated.

Series [2] is described as follows: Bioavailability test: pharmacokinetic study of TBN (API) and enteric-coated tablets in beagle dogs. As to conditions: 175 mg, oral gavage; for MRT last: read-out: MRT (0-t); for Vd/F: read-out: Vz/F. It is filed as in vivo. The protocol:
(10) Bioavailability test: Pharmacokinetic study of TBN (API) and enteric-coated tablets in beagle dogs
6 beagle dogs were randomly divided into 2 groups, each group having 3 animals. Each test animal was given with TBN (API) at a dosage of 175 mg, or 1 enteric-coated tablet with a specification of 175 mg prepared following the method in Example 17 by oral gavage. The blood sample was collected at various times (0.08, 0.25, 0.5, 1, 1.5, 2, 4, 8, 12, and 24 h), and analyzed by LC-MS/MS. A drug concentration-time curve was plotted to calculate the pharmacokinetic parameters.

Where [3] appears, read: both sexes, dog, blood, beagle dogs, intravenous 6 mg · kg^−1, Mean.
Setting [4] is: beagle, dog, blood, po, Average of 3 animals.
The mark [5] stands for this setting: beagle, dog, blood, po, individual animal.
Setting [6] is: individual animal, listed as TBN (API).

Several values for one entry are separate records, joined by “and”; a condition that tells them apart may be missing. Identical values can stand only once. Like-named read-outs stand apart in the source and are kept apart here.

As usually defined, the AUC(0-inf) is total exposure, with the tail of the curve extrapolated. A high value points to high exposure. A word on the half-life: it is the time needed for the level to fall by half in the phase considered. The AUC(0-t) is exposure summed from dosing to a finite time, without extrapolation to infinity. The term Cmax denotes the maximum level reached in the sampled fluid or tissue. As usually defined, the Tmax is the time from dosing to the highest level.

In series [1] (setting [3]), `Cc1nc(C)c(/C=[N+](\[O-])C(C)(C)C)nc1C` [TBN, (cis)-2-methyl-N-[(3,5,6-trimethylpyrazin-2-yl)methylene)2-propylamine oxide] showed a total exposure AUC(0-inf) of 3560 ng·h/mL, a C0 of 12100 ng/mL, a clearance of 29.1 mL/min/kg and a half-life of 17.5 min. Moreover, in series [1] (both sexes, dog, blood, beagle dogs, intravenous 6 mg · kg^−1, Mean, read-out: MRT0-inf), the MRT inf came to 17.9 min. Moreover, in series [1] (both sexes, dog, blood, beagle dogs, intravenous 6 mg · kg^−1, Mean, read-out: VDSS), the Vd was 0.503 L/kg. The “difference in exposure levels (C0, AUC0-t) between male and female beagle dogs” value in series [1] (intravenous administration) is “no significant difference”. In series [2] (setting [4]), the total exposure AUC(0-inf) was determined as 9580 ng·h/mL, the MRT last stood at 49.8 min and the Vd/F stood at 1.22 L/kg. Besides, the exposure AUC(0-t) in series [2] (beagle, dog, blood, po, Average of 3 animals, read-out: AUC(0-t)) turned out to be 9580 ng·h/mL. The maximum concentration (Cmax) in series [2] (beagle, dog, blood, po, Average of 3 animals, read-out: Cmax) was determined as 10100 ng/mL. In series [2] (setting [5]), the MRT last is 37.2 min and the Vd/F stood at 1.39 L/kg. The Tmax in series [2] (dog, blood, individual animal) is 15 min. In series [2] (Average of 3 animals), the “CLz/F” value came out at 30.2 mL/min/kg and the “T½z” value is 31.2 min. In series [2] (setting [6]), the “AUC (0-∞)” value is 5294.6 ng·h/mL and 6935.3 ng·h/mL and 16503.3 ng·h/mL; the “AUC(0-t)” value is 5290.7 ng·h/mL and 6935.2 ng·h/mL and 16503.2 ng·h/mL; the “CLz/F” value was 42.8 mL/min/kg and 33.7 mL/min/kg and 14 mL/min/kg; the “Cmax” value was 7280.25 ng/mL and 7291.11 ng/mL and 15646.14 ng/mL. In addition, in series [2] (setting [6]), the “MRT (0-t)” value is 53.4 min and 58.8 min; the “T½z” value was 22.8 min and 29.4 min and 42.6 min.
